Reference: patent US9512152B2, “Phospholipid compound containing unsaturated fatty acid derivative having cyclopropane ring” (NISHIZAKI BIOINFORMATION RESEARCH INSTITUTE, priority 2013, dated 2016)

Experiments:
[1] = induced by scopolamine; non-patent documents 1, 2; cited from earlier work
[2] = system: synapse transmission; conditions: patent document 1; cited from earlier work
[3] = patent document 2; cited from earlier work
[4] = system: 3T3L1-GLUT4myc adipocytes; test: Analysis of GLUT4 trafficking (cellular membrane transport of GLUT4); type: cell-based; conditions: 1 μM, 20 min, FIG. 7
Description: 3T3L1-GLUT4myc fibroblast strain expressing GLUT4myc was used. The cells are constructed by inserting human c-MYC epitope (14 amino acids) into the first ectodomain. The cells were cultured in Dulbecco's Modified Eagles Medium (DMEM) added with 10% (v/v) bovine serum, penicillin (final concentration, 100 U/ml) and streptomycin (final concentration, 0.1 mg/ml) in a humid environment under 5% CO2 and 95% air at 37° C. When the cells reached confluence (day 0), the medium was exchanged with DMEM added with 10% (v/v) fetal bovine serum (FBS), 1 μM dexamethasone, 0.5 mM 3-isobutyl-methyl-xanthine and 0.1 mg/ml insulin to allow for differentiation from fibroblast into adipocyte. The medium was exchanged with DMEM added with 10% (v/v) FBS on day 3, day 7 and day 11. On day 14, the cells were used for the experiment.
3T3L1-GLUT4myc adipocytes were incubated in Krebs-Ringer-HEPES buffer [136 mM NaCl, 4.7 mM KCl, 1.25 mM CaCl2, 1.25 mM MgSO4 and 20 mM HEPES, pH 7.5] containing 0.2% (w/v) bovine serum albumin and added with 10 mM glucose at 37° C. for 1 hr. The cells were incubated in the presence or absence of insulin, phospholipid or a derivative thereof for 20 min. Then, the cells were homogenized by sonication in an ice-cooled mitochondria buffer containing 1% (v/v) protease inhibitor cocktail [210 mM mannitol, 70 mM sucrose, and 1 mM ethylenediaminetetraacetic acid (EDTA), 10 mM HEPES, pH 7.5]. Sequentially, the homogenate was centrifuged at 4° C. for 5 min at 3,000 rpm. The supernatant was further centrifuged at 4° C. for 15 min at 11,000 rpm. […] The protein concentration of each fraction was measured using BCA protein assay kit (Thermo Fisher Scientific, Waltham, Mass., USA). […] The immunoreactivity was detected using ECL kit (Invitrogen), and visualized using a chemical luminescence detection system (chemiluminescence detection system; GE Healthcare, Piscataway, N.J., USA). The signal density was measured using an image analysis software (Image Gauge software; GE Healthcare).

CCCCC/C=C\C/C=C\CCCCCCCC(=O)OC[C@H](COP(=O)([O-])OCC[N+](C)(C)C)OC(=O)CCCCCCC/C=C\C/C=C\CCCCC [1,2-dilinoleoyl-sn-glycero-3-phosphocholine]
Improvement of spatial learning disorder and memory disorder [1]: improve spatial learning disorder and memory disorder induced by scopolamine

CCCCCCCC/C=C\CCCCCCCC(=O)O[C@H](COC(=O)CCCCCCCCCCCCCCC)COP(=O)([O-])OCC[N+](C)(C)C [1-palmitoyl-2-oleoyl-sn-glycero-3-phosphocholine]
Improvement of spatial learning disorder and memory disorder [1]: improve spatial learning disorder and memory disorder induced by scopolamine

CCCCCC1CC1CC1CC1CCCCCCCC(=O)O (centres unmarked) [DCP-LA, 8-[2-(2-Pentyl-cyclopropylmethyl)-cyclopropyl]-octanoic acid]
Enhancement of synapse transmission (LTP-like) [2]: can maintain stable LTP (long-teLm potentiation)-like enhancement of synapse transmission

CCCCC/C=C/C/C=C/CCCCCCCC(=O)OCC(COP(=O)(O)OCCN)OC(=O)CCCCCCC/C=C/C/C=C/CCCCC (centres unmarked) [dilinoleoyl•phosphatidylethanolamine]
Cell death induction suppressive activity / endoplasmic reticulum stress suppressive activity [3]: cell death induction suppressive activity, particularly, endoplasmic reticulum stress suppressive activity

insulin: insulin, comparison treatment in the GLUT4 trafficking analysis [reference compound]
Promotion of cellular membrane transport of GLUT4 [4]: an action to promote cellular membrane transport of GLUT4
